In patent US5567724A, “Alkaline and acid phosphatase inhibitors in treatment of neurological disorders” (Cortex Pharmaceuticals, Inc., priority 1994, dated 1996):
Counter-ions that a name gives are not always drawn. Like-named read-outs stand apart in the source and are kept apart here.

How the values were obtained:
HT4 neurotumor cells = assay: β-amyloid peptide toxicity in HT4 neurotumor cells, LDH release; type: cell-based, rat; details: 100 μM inhibitor; 50 μM β-amyloid peptide 25-35 and 250 μM quisqualate; 24 hours after treatment
Procedure: HT4 neurotumor cells were treated with 50 μM β-amyloid peptide 25-35 and 250 μM quisqualate. The cells were also treated with 100 μM of the following alkaline phosphatase inhibitors: 1,10 phenanthroline, phenylalanine, IBMX, bromotetramisole, purine, and theophylline. The death of the neurons was determined by measuring LDH activity in the media 24 hours after treatment. The release of LDH from the cells into the surrounding media indicates cell death.
FIG. 1 illustrates the results of the study of Example 1. […] Cells subjected to no treatment had only a low level of LDH activity.

[1] = Procedure: Human subjects diagnosed as suffering from AD are administered 50 mg of an arylimidothiazole derivative, such as levamisole, orally every eight hours for three days. The treatment is repeated every 14 days for a period of 6 months. […] A human patient diagnosed as suffering from Alzheimer's Disease is administered about 50 mg levamisole orally every eight hours for three days. The treatment is repeated every 14 days for a period of 6 months. […] Human subjects diagnosed as suffering from AD are administered 0.05 mg/kg of an arylimidothiazole derivative, such as levamisole, orally every day for a period of six months. […] A human patient diagnosed as suffering from Alzheimer's Disease is identified as having deteriorating symptoms of the disease. The patient is administered about 10 mg levamisole orally once per day for a period of six months.
[2] = test system: calf intestinal alkaline phosphatase; assay: Alkaline phosphatase assay with pNPP substrate, calf intestinal enzyme; type: biochemical; details: pNPP 5 mM, pH 5.5 lysis buffer
Procedure: (§1) Porcine kidney (0.01 U) and calf intestinal (0.002 U) alkaline phosphatases were assayed in the presence of levamisole (200 μM) or vanadate salt (5-500 μM) using pNPP (5 mM) as substrate. The assay was carried out in pH 5.5 lysis buffer. Each bar in FIG. 4 represents the mean of quadruplicates ± the standard deviation. The results of the experiment of Example 4 are illustrated in FIG. 4. […] The effect of treatment on humans with AD using arylimidothiazole derivatives having alkaline phosphatase inhibitory activity is described below in Examples 5-9.

[3] = test system: rat embryonic hippocampal neurons; details: 50 μM β-amyloid 25-35
Procedure: To further determine the effect of alkaline phosphatase inhibitors on βamyloid peptide toxicity, rat embryonic hippocampal neurons in culture were exposed to 50 μM β-amyloid 25-35 in the presence of levamisole concentrations of 250 μM and 500 μM.

[4] = test system: Porcine kidney alkaline phosphatase; assay: Alkaline phosphatase assay with pNPP substrate, porcine kidney enzyme; type: biochemical; details: pNPP 5 mM, pH 5.5 lysis buffer
Procedure: as §1

Hippocampal neurons = assay: Okadaic acid with β-amyloid on hippocampal neurons, LDH efflux; type: cell-based; details: 50 nM okadaic acid with 50 μM β-amyloid (β25-35), 24 hours, DME medium, 37° C.
Procedure: Hippocampal neurons were treated with 50 μM β-amyloid (β25-35)and 50 nM okadaic acid for 24 hours in Dulbeccois Modified Eagle's (DME) medium at 37° C. Following the 24-hour treatment period, an aliquot of media was removed for determination of LDH efflux from the neurons, which is an indicator of cell death. Each bar in FIG. 3, except the bar representing okadaic acid alone, represents the mean of 4 wells ± the standard deviation. The bar representing okadaic acid alone represents the mean of 2 wells ± the standard deviation.

[5] = test system: Dorsal root ganglion cells; assay: Vinblastine-induced toxicity in dorsal root ganglion cells, live/dead staining; type: cell-based; details: Na,K-tartrate 500 μM; NGF 50 ng/ml; vinblastine 500 nM; 24 hours
Procedure: Dorsal root ganglion cells were treated with Nerve Growth Factor (NGF) (50 ng/ml), vinblastine (500 nM) and Na,K-tartrate (500 μM) for 24 hours. Following the treatment, the dorsal root ganglion cells were stained with ethidium bromide and fluorescein diacetate to stain dead and live cells, respectively.
FIG. 5 illustrates the results of the study of Example 16. Percentage cell viability is determined from the ratio of live cells to total cell number. Each bar in […] represents the mean of 3 wells ± the standard deviation.

Compound: CC(C)Cn1c(=O)n(C)c(=O)c2[nH]cnc21 [IBMX]
- LDH activity in the media (cell death) (HT4 neurotumor cells): most effective compound tested

Compound: c1ccc([C@H]2CN3CCSC3=N2)cc1 [levamisole, (-)-(S)-2,3,5,6-tetrahydro-6-phenylimidoazide [2,1-b]thiazole monohydrochloride]
- symptoms of AD ([1]; 50 mg orally every eight hours for three days, repeated every 14 days for 6 months): lessened
- symptoms of AD ([1]; about 10 mg orally once per day for six months): decrease
- Inhibition of calf intestinal alkaline phosphatase ([2]; levamisole 200 μM): little effect
- death of the neurons, as indicated by the release of LDH ([3]; levamisole 250 μM): reduced
- LDH activity ([3]; levamisole 500 μM): reduced
- Inhibition of porcine kidney alkaline phosphatase activity ([4]; levamisole 200 μM): unexpectedly high

Compound: C=C1[C@@H](O)[C@@H]2O[C@]3(CC[C@H](/C=C/[C@@H](C)[C@@H]4CC(C)=C[C@@]5(O[C@H](C[C@@](C)(O)C(=O)O)CC[C@H]5O)O4)O3)CC[C@H]2O[C@@H]1[C@@H](O)C[C@H](C)[C@H]1O[C@@]2(CCCCO2)CC[C@H]1C [okadaic acid]
- hippocampal neuronal injury (LDH efflux) (Hippocampal neurons): causes hippocampal neuronal injury

Compound: O=C(O)C(O)C(O)C(=O)O (single isomer, unassigned) [Na,K-tartrate]
- percentage cell viability in the presence of vinblastine [5]: significantly increased

Compound: [O]=[V]([O-])([O-])[O-] [vanadate]
- Inhibition of calf intestinal alkaline phosphatase ([2]; vanadate 100 μM): significantly inhibited
- Inhibition of porcine kidney alkaline phosphatase activity ([4]; vanadate salt 5-500 μM): appear to inhibit
